A short description of one series: in vitro. The following applies: human, uninfected MT-4 cells, CC50 (nM), same protocol as Test A, CellTiter-Glo. A digest of the protocol:
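Cytoprotection read-out: CellTiter-Glo chemiluminescence after 5 days at 37 °C of HIV-IIIb-infected MT-4 cells (m.o.i. 0.003) with compound in 10-point 3-fold dilutions, quadruplicate, 10% FBS. Cytotoxicity (CC50) measured identically without virus.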

A further series has as its system HIV-IIIb. Description: Test A: Antiviral assay in MT4 cells. The following applies: Human immunodeficiency virus 1, IIIB, MT4, 120 h, read-out: % inhibition at 2 μM, percent inhibition of virus-induced cell killing, from dose response curve at 2 uM drug; MT-4 cells infected with HIV-IIIb, 5 days, CellTiter-Glo. The class given is cell-based, HIV-1.

This is an account of results in patent US9540343B2 (Gilead Sciences, Inc., priority 2011, dated 2017).

Molecule `CNC(=O)c1cccc(-c2cccnc2[C@H](Cc2cc(F)cc(F)c2)NC(=O)Cc2c[nH]c3ccc(O)cc23)c1` [Example 46, (S)-3-(2-(2-(3,5-difluorophenyl)-1-(2-(5-hydroxy-1H-indol-3-yl)acetamido)ethyl)pyridin-3-yl)-N-methylbenzamide] returned a cytotoxic concentration (CC50) at 5 days in “in vitro” above 53000 nM. Also, the inhibition at 2 µM with HIV-IIIb is 87%.

`NC(=O)c1cc(-c2cccnc2[C@H](Cc2cc(F)cc(F)c2)NC(=O)Cn2nc(C(F)(F)F)c3c2CC(O)CC3)ccc1F` (stereo partly drawn) [Example 325, 5-(2-((1S)-2-(3,5-difluorophenyl)-1-(2-(6-hydroxy-3-(trifluoromethyl)-4,5,6,7-tetrahydro-1H-indazol-1-yl)acetamido)ethyl)pyridin-3-yl)-2-fluorobenzamide] yielded a half-maximal cytotoxic concentration (CC50) at 5 days in “in vitro” of 46100 nM. Also, in the series on HIV-IIIb, the inhibition at 2 µM was determined as 86%.

Consider `NC(=O)c1cc(-c2cccnc2[C@H](Cc2cc(F)cc(F)c2)NC(=O)Cn2nc(C(F)(F)F)c3c2CCC(F)(F)C3)ccc1F` [Example 150, (S)-5-(2-(1-(2-(5,5-difluoro-3-(trifluoromethyl)-4,5,6,7-tetrahydro-1H-indazol-1-yl)acetamido)-2-(3,5-difluorophenyl)ethyl)pyridin-3-yl)-2-fluorobenzamide], for which the half-maximal cytotoxic concentration (CC50) at 5 days in “in vitro” came to 18400 nM. The inhibition at 2 µM in the series with HIV-IIIb came out at 15%.

`NC(=O)c1cc(-c2cccnc2[C@H](Cc2cc(F)cc(F)c2)NC(=O)Cn2nc(C(F)(F)F)c3c2C2CC2CC3(F)F)ccc1F` (stereo partly drawn) [Example 364, 5-(2-((1S)-1-(2-(4,4-difluoro-3-(trifluoromethyl)-5,5a,6,6a-tetrahydrocyclopropa[g]indazol-1(4H)-yl)acetamido)-2-(3,5-difluorophenyl)ethyl)pyridin-3-yl)-2-fluorobenzamide] displayed a 50% cytotoxic concentration (CC50) at 5 days in the series “in vitro” of 3760 nM. Further, the inhibition at 2 µM in the series with HIV-IIIb was 38%.

In turn, `COc1ccc(-c2cccnc2[C@H](Cc2cc(F)cc(F)c2)NC(=O)Cc2c[nH]c3ccc(F)cc23)cn1` [Example 64, (S)—N-(2-(3,5-difluorophenyl)-1-(6′-methoxy-3,3′-bipyridin-2-yl)ethyl)-2-(5-fluoro-1H-indol-3-yl)acetamide] showed a CC50 at 5 days in “in vitro” of 21100 nM. Further, the inhibition at 2 µM in the series on HIV-IIIb came out at 88%.

`CC(=O)Nc1cc(-c2cccnc2[C@H](Cc2cc(F)cc(F)c2)NC(=O)Cc2c[nH]c3ccc(F)cc23)ccc1F` [Example 473, (S)—N-(1-(3-(3-acetamido-4-fluorophenyl)pyridin-2-yl)-2-(3,5-difluorophenyl)ethyl)-2-(5-fluoro-1H-indol-3-yl)acetamide] registered a CC50 at 5 days in the series “in vitro” of 14600 nM. Besides, the inhibition at 2 µM in the series on HIV-IIIb came out at 18%.

`COc1ccc(-c2cccnc2[C@H](Cc2ccccc2)NC(=O)Cn2nc(C(F)(F)F)c3c2CCCC3)c(C)c1` [Example 19, (S)—N-(1-(3-(4-methoxy-2-methylphenyl)pyridin-2-yl)-2-phenylethyl)-2-(3-(trifluoromethyl)-4,5,6,7-tetrahydro-1H-indazol-1-yl)acetamide] registered a CC50 at 5 days in “in vitro” of 14200 nM. For the same molecule, in the series with HIV-IIIb, the inhibition at 2 µM is 25%.

For the molecule `O=C(Cc1c[nH]c2ccc(F)cc12)NC(Cc1cc(F)cc(F)c1)c1nc[nH]c(=O)c1-c1ccc(Cl)cc1` (stereo not drawn) [Example 328, N-(1-(5-(4-chlorophenyl)-6-oxo-1,6-dihydropyrimidin-4-yl)-2-(3,5-difluorophenyl)ethyl)-2-(5-fluoro-1H-indol-3-yl)acetamide], in the series “in vitro”, the CC50 at 5 days amounted to 10000 nM. The inhibition at 2 µM in the series with HIV-IIIb was 0%.

For `O=C(Cn1nc(C(F)(F)F)c2c1CC1CC21)N[C@@H](Cc1cc(F)cc(F)c1)c1ncccc1-c1cnc2[nH]ccc2c1` (stereo partly drawn) [Example 595, N—((S)-1-(3-(1H-pyrrolo[2,3-b]pyridin-5-yl)pyridin-2-yl)-2-(3,5-difluorophenyl)ethyl)-2-(3-(trifluoromethyl)-3b,4,4a,5-tetrahydro-1H-cyclopropa[3,4]cyclopenta[1,2-c]pyrazol-1-yl)acetamide], the CC50 at 5 days in “in vitro” stood at 12700 nM. For the same molecule, the inhibition at 2 µM in the series with HIV-IIIb was 99%.
